# In patent US20040235890A1, “Remedies for allergic diseases” (priority 2001, published 2004):
# “Also recorded” adds a separate entry of the source. Counter-ions that a name gives are not always drawn.
# Key:
# Allergic rhinitis model = Allergic rhinitis model (ovalbumin-sensitised guinea pig, pituita weight); format: in vivo; conditions: 0.01%, 0.1% and 1.0% solution, 40 uL nasally into both sides, 10 min before 1% ovalbumin; male Crj Hartley guinea pig; monohydrochloride salt
# Experimental: Allergic rhinitis model was produced by administration of ovalbumin to male Crj Hartley guinea pig (6 weeks old) in the procedure shown in table 1.
# At day 42, guinea pigs were inserted with tube into the trachea under anesthesia and kept the heat using heat pat. Forty micro liter of (+)-trans-3-imino-5-methyl-7-chloro-2-azabicyclo[4.1.0]heptane monohydrochloride salt (referred to as “compound A”) or physiological saline was administered nasally into both sides. Ten minutes later, 40 uL of 1% ovalbumin was administered nasally into both sides. Thirty minutes after ovalbumin administration, moisture in the nose was removed with absorbent cotton. Fifteen minutes later, absorbent cotton of which weight was measured was inserted into nose for 15 minutes. Pituita weight was calculated by the difference in weight between pre and post insertion.
# NOS = conditions: cited from earlier work
Structure (SMILES),"Pituita weight (suppression as compared to control, physiological saline) (Allergic rhinitis model)","increase in NO production and vascular permeability in allergic conjunctivitis (NOS; Cornea, 19(1), 84-91 (2000))","prostaglandin E2 production in acute phase of allergic conjunctivitis (NOS; Prostaglandins, 52(6), 431-446 (1996))",effect on allergic conjunctivitis (NOS; in vivo)
"C[C@H]1CC(=N)N[C@@H]2[C@H](Cl)[C@@H]21 (relative stereo) [compound A, (+)-trans-3-imino-5-methyl-7-chloro-2-azabicyclo[4.1.0]heptane monohydrochloride salt]",suppresses pituita weight in dose dependent manner; also recorded: noticeably suppresses pituita weights,,,
"COC(=O)[C@@H](N)CCCNC(=N)N[N+](=O)[O-] [L-NAME, N-ω-nitro-L-arginine methylester]",,suppressed,suppresses prostaglandin E2 production,the action is weak
